Source: PubChem BioAssay (NCI)
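Grown in 96-well plates, cells were treated for 48 hours with each compound at five concentrations. Insufficient inhibition: endpoint recorded as highest concentration tested. At the GI50, growth is halved. At the TGI there is no net growth.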

Experiments:
Assay in all cases: inhibition of tumour cell growth, NCI panel, 48 h
ACHN renal = tested on: ACHN renal
HL-60(TB) leukemia = tested on: HL-60(TB) leukemia
LOX IMVI melanoma = tested on: LOX IMVI melanoma
MOLT-4 leukemia = tested on: MOLT-4 leukemia
NCI-H23 lung = tested on: NCI-H23 lung
NCI-H522 lung = tested on: NCI-H522 lung
SK-MEL-2 melanoma = tested on: SK-MEL-2 melanoma
SK-MEL-28 melanoma = tested on: SK-MEL-28 melanoma
SR leukemia = tested on: SR leukemia
SW-620 colon = tested on: SW-620 colon

| SMILES | GI50 (ACHN renal) [µM] | TGI (ACHN renal) [µM] | GI50 (HL-60(TB) leukemia) [µM] | TGI (HL-60(TB) leukemia) [µM] | GI50 (LOX IMVI melanoma) [µM] | TGI (LOX IMVI melanoma) [µM] | GI50 (MOLT-4 leukemia) [µM] | TGI (MOLT-4 leukemia) [µM] | GI50 (NCI-H23 lung) [µM] | TGI (NCI-H23 lung) [µM] | GI50 (NCI-H522 lung) [µM] | TGI (NCI-H522 lung) [µM] | GI50 (SK-MEL-2 melanoma) [µM] | TGI (SK-MEL-2 melanoma) [µM] | GI50 (SK-MEL-28 melanoma) [µM] | TGI (SK-MEL-28 melanoma) [µM] | GI50 (SR leukemia) [µM] | TGI (SR leukemia) [µM] | GI50 (SW-620 colon) [µM] | TGI (SW-620 colon) [µM] |
| --- | --- | --- | --- | --- | --- | --- | --- | --- | --- | --- | --- | --- | --- | --- | --- | --- | --- | --- | --- | --- |
| NCc1ccc(-n2c(-c3nonc3N)nc3cnccc32)cc1 | 5.68 | > 25 | > 11.8 | > 25 | 17.1 | > 25 | 12.3 | > 25 | > 25 | > 25 | 7.66 | > 25 | > 25 | > 25 | 11.4 | > 25 | 2.67 | > 25 | 7.1 | > 25 |
| CCSc1nc(COC(=O)NC)c(COC(=O)NC)n1C |  | 35.5 |  | > 100 |  | > 100 |  | > 100 |  | > 100 |  | > 95.4 |  | > 100 |  | > 100 |  | > 100 |  | > 100 |
| CC(=O)NC(CCCN(Cc1ccccc1)C(=O)N(CCCl)N=O)C(=O)NCc1ccccc1 (stereo not given) |  | > 96.3 |  | 57.1 |  | > 57.1 |  | 97.5 |  | > 75.1 |  | > 80.6 |  | > 94.8 |  | > 100 |  | > 88.8 |  | > 100 |
| CC(C)(Br)C(=O)/C=C/c1ccccc1 |  | 6.74 |  | 29 |  | 9.75 |  | > 43.7 |  | 5 |  | 0.381 |  | 3.96 |  | 28.9 |  | > 25.6 |  | 6.79 |
| Cc1ncc([N+](=O)[O-])n1CCNC(=O)CCCn1cnc([N+](=O)[O-])n1 |  | > 100 |  | > 100 |  | > 100 |  | > 100 |  | > 100 |  | > 100 |  | > 100 |  | > 100 |  | > 100 |  | > 100 |
| COc1cnc2c(c1)C(=O)c1c-2n(CCCN2CCCC2)c(=O)c2cc(Cl)ccc12 | 0.0753 | 6.42 | 6.23 | 15.2 | 0.0423 | 5.96 | 0.0193 | 6.23 | 0.857 | 9.16 | 0.27 | 13.8 | 7.16 | 22.6 | 8.34 | 16.8 | 0.0499 | 7.9 | 0.0313 | 8.09 |
| CCOC(=O)/C(C#N)=C1\N[C@H](C(=O)OCC)CO1 |  | > 100 |  | > 100 |  | > 100 |  | > 100 |  | > 100 |  | > 100 |  | 62.6 |  | > 100 |  | > 100 |  | > 100 |
